Laboratory results as given in PubChem BioAssay (NCI).
Values joined by “and” are separate entries in the source; they are usually repeats but may differ in a detail not shown here. Equal entries are not always repeated.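 All cell lines were grown in 96-well plates and treated with compound for 48 hours. GI50 marks 50% less growth. The concentration for full growth arrest is given as TGI.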

Legend:
Assay in all cases: inhibition of tumour cell growth, NCI panel, 48 h
A549 NSCLC = system: A549 NSCLC
BT-549 breast = system: BT-549 breast
HCT-15 colon = system: HCT-15 colon
HOP-92 NSCLC = system: HOP-92 NSCLC
K-562 leukemia = system: K-562 leukemia
MALME-3M melanoma = system: MALME-3M melanoma
NCI-H522 lung = system: NCI-H522 lung
OVCAR-5 ovarian = system: OVCAR-5 ovarian
SF-295 CNS = system: SF-295 CNS
SNB-75 CNS = system: SNB-75 CNS
UACC-62 melanoma = system: UACC-62 melanoma

Compound	GI50 (A549 NSCLC) [µM]	TGI (A549 NSCLC)	GI50 (BT-549 breast) [µM]	TGI (BT-549 breast)	GI50 (HCT-15 colon) [µM]	TGI (HCT-15 colon)	GI50 (HOP-92 NSCLC) [µM]	TGI (HOP-92 NSCLC)	GI50 (K-562 leukemia) [µM]	TGI (K-562 leukemia)	TGI (MALME-3M melanoma) [µM]	TGI (NCI-H522 lung) [µM]	GI50 (OVCAR-5 ovarian) [µM]	TGI (OVCAR-5 ovarian)	GI50 (SF-295 CNS) [µM]	TGI (SF-295 CNS)	GI50 (SNB-75 CNS) [µM]	TGI (SNB-75 CNS)	TGI (UACC-62 melanoma) [µM]
COC(=O)CN1Cc2cc(C)cc(c2O)CN(CC(=O)OC)Cc2cc(C)cc(c2O)CN(CC(=O)OC)Cc2cc(C)cc(c2O)CN(CC(=O)OC)Cc2cc(C)cc(c2O)C1	46.4	50 µM and > 100 µM	15.3	50 µM and 77.7 µM	25	50 µM and > 100 µM	21.5	> 50 µM and 97.5 µM	61.2	50 µM and > 100 µM	50	> 100	5.26	50 µM and > 100 µM	34.1	50 µM and > 100 µM	42.5	50 µM and > 100 µM	> 100
O=C1c2ccccc2C(=O)c2c1oc1cc(O)c(Cl)cc21		9.46 µM		15.5 µM		17.8 µM		25.9 µM		43.9 µM	2.51	26.9		23.9 µM		9.46 µM		10.4 µM	4.32
COC1(OC)CCN(Cc2ccccc2)C1=O		32.3 µM		31 µM		38.6 µM		23.4 µM		> 37.9 µM	> 100	> 100		31.8 µM		53.9 µM		30.6 µM	26.1
COc1ccc(OC(=O)N2C/C(=C\c3ccccc3)C(=O)/C(=C/c3ccccc3)C2)cc1		38.9 µM		4.67 µM		9.23 µM		40.1 µM		7.66 µM	27.8	5.23		27.1 µM		10.1 µM		32.6 µM	5.35
CC/C(Cl)=N\OC(=O)Nc1ccc(F)c(Cl)c1		54.9 µM		51.3 µM		35.5 µM		9.41 µM		3.26 µM	9.29	3.44		31.4 µM		33.1 µM		26.2 µM	46.3
